In ChEMBL document CHEMBL1212936, “Discovery of 2-[1-(4-chlorophenyl)cyclopropyl]-3-hydroxy-8-(trifluoromethyl)quinoline-4-carboxylic acid (PSI-421), a P-selectin inhibitor with improved pharmacokinetic properties and oral efficacy in models of vascular injury” (J Med Chem, 2010):
≈ marks a conversion by molar mass, not a printed value. Calls of active or inactive are those of the source. The rule behind the calls is not given here.

What was measured:
[1] = Solubility of the compound in simulated intestinal fluid; type: physicochemical
[2] = Physiological stability of the compound at pH 1 assessed as compound remaining after 8 hrs in presence of 20% acetonitrile; type: physicochemical; conditions: read-out: Stability
[3] = Physiological stability of the compound at pH 4.5 assessed as compound remaining after 4 hrs in presence of 20% acetonitrile; type: physicochemical; conditions: read-out: Stability
[4] = Physiological stability of the compound at pH 1 assessed as compound remaining after 24 hrs in presence of 20% acetonitrile; type: physicochemical; conditions: read-out: Stability
[5] = test system: Canis familiaris; test: Dose normalized AUC in Beagle dog measured per mg of plasma at 2 mg/kg, iv and 10 mg/kg, po; type: ADME, organism-based, Canis lupus familiaris; conditions: in vivo
[6] = Physiological stability of the compound at pH 9 assessed as compound remaining after 4 hrs in presence of 20% acetonitrile; type: physicochemical; conditions: read-out: Stability
[7] = test system: Mus musculus; test: Reduction of leukocytes rolling flux in acute intravital microscopy model of C57B6 mouse cremasteric postcapillary venules at 50 mg/kg, po after 35 mins relative to control; type: functional; set-up: scale not given: the % may be the effect or the level left
[8] = Physiological stability of the compound at pH 7.4 assessed as compound remaining after 24 hrs in presence of 20% acetonitrile; type: physicochemical; conditions: read-out: Stability
[9] = Physiological stability of the compound in simulated intestinal fluid assessed as compound remaining after 8 hrs in presence of 20% acetonitrile; type: physicochemical; conditions: read-out: Stability
[10] = Oral bioavailability in cynomolgus monkey at 5 mg/kg; type: ADME, organism-based, Macaca fascicularis; conditions: in vivo
[11] = Half life in cynomolgus monkey liver microsomes; type: ADME, Macaca fascicularis, Microsome
[12] = Physiological stability of the compound at pH 6.6 assessed as compound remaining after 12 hrs in presence of 20% acetonitrile; type: physicochemical; conditions: read-out: Stability
[13] = Physiological stability of the compound at pH 6.6 assessed as compound remaining after 8 hrs in presence of 20% acetonitrile; type: physicochemical; conditions: read-out: Stability
[14] = Genotoxicity in Salmonella Typhimurium by Ames test; type: toxicity; conditions: salmonella enterica subsp. enterica serovar typhimurium
[15] = Physiological stability of the compound at pH 6.6 assessed as compound remaining after 16 hrs in presence of 20% acetonitrile; type: physicochemical; conditions: read-out: Stability
[16] = Physiological stability of the compound at pH 1 assessed as compound remaining after 4 hrs in presence of 20% acetonitrile; type: physicochemical; conditions: read-out: Stability
[17] = Physiological stability of the compound in simulated intestinal fluid assessed as compound remaining after 20 hrs in presence of 20% acetonitrile; type: physicochemical; conditions: read-out: Stability
[18] = Physiological stability of the compound at pH 7.4 assessed as compound remaining after 16 hrs in presence of 20% acetonitrile; type: physicochemical; conditions: read-out: Stability
[19] = test system: Papio anubis; test: Toxicity in Baboon deep vein thrombosis model assessed as induction of coagulation at 1 mg/kg, po; type: organism-based; set-up: dose 1 mg/kg, route oral; conditions: in vivo
[20] = Physiological stability of the compound at pH 7.4 assessed as compound remaining after 8 hrs in presence of 20% acetonitrile; type: physicochemical; conditions: read-out: Stability
[21] = test system: Plasma; test: Drug level in Sprague-Dawley rat plasma at 15 mg/kg, po; type: ADME, organism-based; set-up: dose 15 mg/kg, route oral; conditions: in vivo
[22] = Aqueous solubility of the compound at pH 7.4; type: physicochemical; conditions: aqueous solution, read-out: solubility
[23] = test system: Papio anubis; test: Antithrombotic activity in Baboon deep vein thrombosis model assessed as vein opening at 1 mg/kg, po; type: functional, organism-based; set-up: dose 1 mg/kg
[24] = Physiological stability of the compound at pH 9 assessed as compound remaining after 12 hrs in presence of 20% acetonitrile; type: physicochemical; conditions: read-out: Stability
[25] = Oral bioavailability in C57B6 mouse at 10 mg/kg; type: ADME, organism-based; conditions: in vivo
[26] = Aqueous solubility of the compound at pH 6.6; type: physicochemical; conditions: aqueous solution
[27] = Clearance in C57B6 mouse at 2 mg/kg, iv and 10 mg/kg, po; type: ADME, organism-based; conditions: in vivo
[28] = Physiological stability of the compound in simulated intestinal fluid assessed as compound remaining after 4 hrs in presence of 20% acetonitrile; type: physicochemical; conditions: read-out: Stability
[29] = Half life in C57B6 mouse liver microsomes; type: ADME, Microsome
[30] = Physiological stability of the compound at pH 9 assessed as compound remaining after 24 hrs in presence of 20% acetonitrile; type: physicochemical; conditions: read-out: Stability
[31] = Physiological stability of the compound in simulated intestinal fluid assessed as compound remaining after 12 hrs in presence of 20% acetonitrile; type: physicochemical; conditions: read-out: Stability
[32] = Clearance in Sprague-Dawley rat at 3 mg/kg, iv and 10 mg/kg, po; type: ADME, organism-based; conditions: in vivo
[33] = test system: Plasma; test: Drug level in Sprague-Dawley rat plasma at 7.5 mg/kg, po; type: ADME, organism-based; set-up: dose 7.5 mg/kg, route oral; conditions: in vivo
[34] = Physiological stability of the compound at pH 4.5 assessed as compound remaining after 24 hrs in presence of 20% acetonitrile; type: physicochemical; conditions: read-out: Stability
[35] = molecular target: Voltage-gated inwardly rectifying potassium channel KCNH2 (Homo sapiens, UniProt Q12809); test: Inhibition of human ERG
Voltage-gated inwardly rectifying potassium channel KCNH2, sequence (Q12809 whole entry): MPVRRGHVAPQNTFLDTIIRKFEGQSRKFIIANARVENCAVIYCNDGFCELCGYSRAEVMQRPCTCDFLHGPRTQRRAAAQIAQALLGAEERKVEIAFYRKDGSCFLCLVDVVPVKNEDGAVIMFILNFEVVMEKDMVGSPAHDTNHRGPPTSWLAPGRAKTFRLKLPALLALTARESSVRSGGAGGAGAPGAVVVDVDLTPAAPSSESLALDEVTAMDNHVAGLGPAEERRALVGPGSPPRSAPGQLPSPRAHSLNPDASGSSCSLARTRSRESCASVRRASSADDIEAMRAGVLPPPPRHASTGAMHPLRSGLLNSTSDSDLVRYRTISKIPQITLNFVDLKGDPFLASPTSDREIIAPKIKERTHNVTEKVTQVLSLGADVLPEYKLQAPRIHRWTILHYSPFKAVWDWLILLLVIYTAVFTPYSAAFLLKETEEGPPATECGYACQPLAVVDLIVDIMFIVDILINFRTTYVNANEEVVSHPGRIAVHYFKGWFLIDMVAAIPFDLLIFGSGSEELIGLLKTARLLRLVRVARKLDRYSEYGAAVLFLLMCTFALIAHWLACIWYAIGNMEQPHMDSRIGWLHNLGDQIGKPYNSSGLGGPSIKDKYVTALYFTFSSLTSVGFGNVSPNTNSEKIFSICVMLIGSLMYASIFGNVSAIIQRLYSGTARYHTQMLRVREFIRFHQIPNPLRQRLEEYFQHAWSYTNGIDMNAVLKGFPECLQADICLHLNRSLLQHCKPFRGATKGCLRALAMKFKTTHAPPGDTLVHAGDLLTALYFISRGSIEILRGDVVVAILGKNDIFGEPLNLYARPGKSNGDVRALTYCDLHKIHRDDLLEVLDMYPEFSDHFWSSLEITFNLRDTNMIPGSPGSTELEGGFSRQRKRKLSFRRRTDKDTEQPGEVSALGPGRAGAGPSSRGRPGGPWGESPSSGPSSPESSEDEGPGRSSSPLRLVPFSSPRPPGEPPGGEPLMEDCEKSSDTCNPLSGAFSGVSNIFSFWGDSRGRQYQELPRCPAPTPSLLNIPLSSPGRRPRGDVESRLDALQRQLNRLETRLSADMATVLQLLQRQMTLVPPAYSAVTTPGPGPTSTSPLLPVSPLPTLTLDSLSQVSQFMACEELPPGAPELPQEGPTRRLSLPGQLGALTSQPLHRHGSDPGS

[36] = test system: Rattus norvegicus; test: Inhibition of leukocytes rolling flux in acute intravital microscopy Sprague-Dawley rat model at 30 mg/kg, po after 35 mins relative to control; type: functional
[37] = Half life in human liver microsomes; type: ADME, Microsome
[38] = Physiological stability of the compound in simulated intestinal bile salts-lecithin mixture fluid assessed as compound remaining after 16 hrs in presence of 20% acetonitrile; type: physicochemical; conditions: read-out: Stability
[39] = Physiological stability of the compound in simulated intestinal bile salts-lecithin mixture fluid assessed as compound remaining after 24 hrs in presence of 20% acetonitrile; type: physicochemical; conditions: read-out: Stability
[40] = Physiological stability of the compound at pH 4.5 assessed as compound remaining after 8 hrs in presence of 20% acetonitrile; type: physicochemical; conditions: read-out: Stability
[41] = Physiological stability of the compound in simulated intestinal fluid assessed as compound remaining after 16 hrs in presence of 20% acetonitrile; type: physicochemical; conditions: read-out: Stability
[42] = test system: Rattus norvegicus; test: Inhibition of leukocytes rolling flux in acute intravital microscopy model of Sprague-Dawley rat cremasteric postcapillary venules at 7.5 mg/kg, po after 35 mins relative to control; type: functional
[43] = Physiological stability of the compound at pH 1 assessed as compound remaining after 16 hrs in presence of 20% acetonitrile; type: physicochemical; conditions: read-out: Stability
[44] = Physiological stability of the compound at pH 4.5 assessed as compound remaining after 16 hrs in presence of 20% acetonitrile; type: physicochemical; conditions: read-out: Stability
[45] = Physiological stability of the compound at pH 6.6 assessed as compound remaining after 4 hrs in presence of 20% acetonitrile; type: physicochemical; conditions: read-out: Stability
[46] = test system: Rattus norvegicus; test: Inhibition of Sprague-Dawley rat neointimal hyperplasia carotid balloon injury model at 30 mg/kg, po once daily for 13 days; type: functional; conditions: 312 h
[47] = test system: Rattus norvegicus; test: Inhibition of leukocytes rolling flux in acute intravital microscopy model of Sprague-Dawley rat cremasteric postcapillary venules at 3 mg/kg, po after 35 mins relative to control; type: functional
[48] = Permeability from basolateral to apical side in human Caco-2 cells; type: ADME, cell-based
[49] = Physiological stability of the compound in simulated intestinal fluid assessed as compound remaining after 24 hrs in presence of 20% acetonitrile; type: physicochemical; conditions: read-out: Stability
[50] = Solubility of the compound in fasted simulated intestinal bile salts-lecithin mixture fluid at pH 6; type: physicochemical

O=C(O)c1c(O)c(C2(c3ccc(Cl)cc3)CC2)nc2c(C(F)(F)F)cccc12
solubility [1]: 3950 µg/mL (≈ 9690 µM) | remaining at 8 h [2]: 102% | remaining at 4 h [3]: 102% | remaining at 24 h [4]: 101% | AUC [5]: 28862 ng·h/mL | remaining at 4 h [6]: 98.5% | Activity [7]: 69% | remaining at 24 h [8]: 103% | remaining at 8 h [9]: 104% | bioavailability [10]: 96% | half-life [11]: > 1 h | remaining at 12 h [12]: 106% | remaining at 8 h [13]: 104% | Activity [14]: Non-toxic | remaining at 16 h [15]: 103% | remaining at 4 h [16]: 101% | remaining at 20 h [17]: 99.4% | remaining at 16 h [18]: 102% | Activity [19]: Non-toxic | remaining at 8 h [20]: 102% | Cp [21]: 24000 ng/mL | solubility [22]: 165 µg/mL (≈ 405 µM) | Activity [23]: Active | remaining at 12 h [24]: 98.8% | bioavailability [25]: 67% | solubility [26]: 920 µg/mL (≈ 2260 µM) | clearance [27]: 7 mL/min/kg | remaining at 4 h [28]: 101% | half-life [29]: > 1 h | remaining at 24 h [30]: 99.6% | remaining at 12 h [31]: 101% | clearance [32]: 0.7 mL/min/kg | Cp [33]: 6000 ng/mL | remaining at 24 h [34]: 102% | inhibition (INH) [35]: Not Active | inhibition in vivo at 30 mg/kg [36]: 61% | half-life [37]: > 1 h | remaining at 16 h [38]: 102% | remaining at 24 h [39]: 103% | remaining at 8 h [40]: 102% | remaining at 16 h [41]: 101% | inhibition in vivo at 7.5 mg/kg [42]: 47% | remaining at 16 h [43]: 102% | remaining at 16 h [44]: 101% | remaining at 4 h [45]: 102% | inhibition in vivo at 30 mg/kg [46]: 31% | inhibition in vivo at 3 mg/kg [47]: 12% | Papp B→A [48]: 9.8 ×10⁻⁶ cm/s | remaining at 24 h [49]: 95% | solubility [50]: 87 µg/mL
